These results are taken from ChEMBL document CHEMBL5143547, “Antimycobacterial and anti-inflammatory activities of thiourea derivatives focusing on treatment approaches for severe pulmonary tuberculosis” (Bioorg Med Chem, 2022).

The source made the active and inactive calls. The rule behind the calls is not given here. A value given as a limit tells only on which side of the number the result lay.

Data set [1] concerns RAW264.7. Kind of data set: Anti-inflammatory activity against LPS-stimulated mouse RAW264.7 cells assessed as reduction in TNFalpha protein expression level at 12.5 uM after 24 hrs by ELISA. The class given is functional, cell-based. On the technique in general: An ELISA detects its analyte on a solid surface through an enzyme-linked reagent.
The nature of data set [2]: Cytotoxicity against LPS-stimulated mouse RAW264.7 cells after 24 hrs by MTT assay. In kind it is toxicity, cell-based. Particulars: LPS-stimulated RAW264.7 cells. (Tetrazolium dyes change colour on reduction, which living cells bring about.)
In data set [3] the test system is RAW264.7. The data set is described as follows: Anti-inflammatory activity against LPS-stimulated mouse RAW264.7 cells assessed as reduction in IL1beta protein expression level after 24 hrs by ELISA. In kind it is functional, cell-based. To be noted: RAW264.7, 24 h.
Data set [4] relates to Mycobacterium tuberculosis. Kind of data set: Antitubercular activity against Mycobacterium tuberculosis H37Rv assessed as reduction in microbial growth after 5 days by MTT assay. In kind it is functional. Particulars: 120 h, time 5 day.
Data set [5] relates to Mycobacterium tuberculosis. Kind of data set: Antitubercular activity against Mycobacterium tuberculosis M299 assessed as reduction in microbial growth after 5 days by MTT assay. The class given is functional, organism-based. Particulars: M299, 120 h.
The test system of data set [6] is RAW264.7. The data set is described as follows: Anti-inflammatory activity against LPS-stimulated mouse RAW264.7 cells assessed as reduction in iNOS protein expression level at 100 uM after 24 hrs by immunoblot analysis relative to control. In kind it is functional. For orientation: In western blotting, separated proteins are transferred to a membrane and probed.

Data set [7] can be described thus: Selectivity index, ratio of CC50 for cytotoxicity against LPS-stimulated mouse RAW264.7 cells to MIC50 for antitubercular activity against Mycobacterium tuberculosis M299. The class given is toxicity, cell-based. Particulars: LPS-stimulated RAW264.7 cells, read-out: Selectivity Index.
Data set [8] has as its system RAW264.7. The data set is described as follows: Inhibition of NO production in mouse RAW264.7 cells incubated for 24 hrs by Griess reagent based analysis. In kind it is functional, cell-based. Particulars: RAW264.7, 24 h.
Data set [9] deals with Mycobacterium tuberculosis. Kind of data set: Antitubercular activity against Mycobacterium tuberculosis H37Rv infected in mouse RAW264.7 cells assessed as reduction in microbial growth after 4 days followed by cell lysis and measured after 21 days. In kind it is functional. To be noted: 96 h, time 4 day.
Data set [10] is described as follows: Selectivity index, ratio of CC50 for cytotoxicity against LPS-stimulated mouse RAW264.7 cells to MIC50 for antitubercular activity against Mycobacterium tuberculosis H37Rv. In kind it is toxicity, cell-based. Particulars: LPS-stimulated RAW264.7 cells, read-out: Selectivity Index.
Data set [11] deals with RAW264.7. Kind of data set: Anti-inflammatory activity against LPS-stimulated mouse RAW264.7 cells assessed as reduction in TNFalpha protein expression level after 24 hrs by ELISA. The class given is functional, cell-based. Particulars: RAW264.7, 24 h.
The subject of data set [12] is Mycobacterium tuberculosis. Kind of data set: Antitubercular activity against Mycobacterium tuberculosis M299 infected in mouse RAW264.7 cells assessed as reduction in intracellular microbial growth after 4 days followed by cell lysis and measured after 21 days. The class given is functional. Particulars: M299, 96 h, time 4 day.
Data set [13] relates to RAW264.7. Kind of data set: Anti-inflammatory activity against LPS-stimulated mouse RAW264.7 cells assessed as reduction in iNOS protein expression level at 50 uM after 24 hrs by immunoblot analysis. The class given is functional, cell-based.

The term inhibition denotes the drop in the measured response relative to a control, in per cent. A word on the CC50: it is the concentration at which the toxic effect on the cells reaches its halfway point. High values mean lower toxicity to the cells, low ones greater toxicity to the cells. As usually defined, the IC50 is the concentration needed to halve the response being measured. As usually defined, the MIC50 is an inhibitory concentration at the 50% level, which refers to growth in some studies and to a panel of isolates in others. As for `S=C(NCc1ccccc1)Nc1ccc2c(c1)OCCO2`, the inhibition result in data set [1] is “Active”. The CC50 at 24 h in [2] was at least 200 µM. Also, the IC50 in data set [3] was 33.2 µM; in [5] it was 11.3 µM; in [8], 13.7 µM; in data set [11] it was 20.7 µM. Also, the MIC50 in data set [4] came to 2 µM; in data set [9] it was 4.8 µM; in data set [12], 19.4 µM. Further, the inhibition at 100 µM in data set [6] was at most 100%. Moreover, the selectivity ratio in [7] is at least 17.7; in [10], above 100.
Take `CC(C)c1ccc(NC(=S)NCc2ccccc2)cc1`: the inhibition result in data set [1] and in data set [13] was “Active” in each case. Further, the CC50 at 24 h in data set [2] came out at 121 µM. In addition, the IC50 is 55.7 µM in data set [3], 7.8 µM in data set [5], 2.4 µM in data set [8] and 4 µM in data set [11]. The values for the MIC50 in data set [4], in data set [9] and in data set [12] were 2.3 µM, 1.7 µM and 5.6 µM, respectively. The inhibition at 100 µM in data set [6] was at most 100%. Besides, the selectivity ratio in [7] was 15.5; in data set [10], 52.5.
`O=C(NNC(=S)NCc1ccccc1)c1ccncc1`: the inhibition entry in [1] is “Active”. In [2], the CC50 at 24 h was found to be 93.2 µM. For the same compound, the IC50 in [3] is at least 200 µM; in [5], 6.9 µM; in data set [8], 7.4 µM; in data set [11], 18.7 µM. Moreover, the MIC50 in [4] worked out at 1.3 µM; in [9] it was 3.7 µM; in [12] it was 32 µM. Further, the inhibition at 100 µM in data set [6] is at most 100%. The figures for the selectivity ratio in data set [7] and in [10] were 13.5 and 71.7, respectively.
For the compound `COc1cc(NC(=S)NCCc2ccccc2)cc(OC)c1OC`, the inhibition entry in data set [1] is “Active”. The same compound registered a CC50 at 24 h in data set [2] of at least 200 µM. Also, the IC50 in [3] was 80.2 µM; in [5], 24.8 µM; in data set [8], 4.1 µM; in [11], 15.3 µM. Further, the MIC50 in data set [4] came out at 8.6 µM; in [9] it was 7.7 µM; in data set [12] it was 12.9 µM. For the same compound, in data set [6], the inhibition at 100 µM was at most 100%. The figures for the selectivity ratio in [7] and in data set [10] were at least 8.1 and above 25, respectively.
Regarding `O=C(O)c1ccc(NC(=S)NCc2ccccc2)cc1O`, the inhibition result in data set [1] was “Active”. The compound further showed a CC50 at 24 h in data set [2] of 197 µM. Besides, the IC50 in data set [3] is 47.9 µM; in data set [5], 24.7 µM; in data set [8] it was 8.1 µM; in data set [11] it was 28.4 µM. Further, the values for the MIC50 in data set [4], in [9] and in [12] were 5.9 µM, 10.9 µM and 24.7 µM, respectively. The inhibition at 100 µM in data set [6] was at most 100%. The selectivity ratio in [7] turned out to be 8; in [10], 33.3.
